From paper PMC10245146, “CNS4 causes subtype‐specific changes in agonist efficacy and reversal potential of permeant cations in NMDA receptors” (Pharmacology Research & Perspectives, 2023)
Where “and” joins values, the source holds several entries; their conditions need not be identical. Equal entries are not always repeated.

Tests used:
1/2A NMDA receptor = settings: read-out: Glutamate potency EC50; cited from earlier work
1/2D NMDA receptor = settings: read-out: Glutamate potency EC50; cited from earlier work
[1] = system: GluN1/2A/2B triheteromeric (1/2AB) NMDA receptors; experiment: TEVC agonist dose-response, Xenopus oocytes expressing 1/2AB; type: cell-based; settings: without CNS4; 100 μM glutamate constant; relative to 1 μM glycine
Description: NMDA receptor constructs: cDNA encoding the NMDA receptor1a subunit (GluN1a) was obtained from Dr. Nakanishi (Kyoto, Japan). cDNA encoding the GluN2B (pci_sepGluN2B), originally developed in the Malinow lab,[33] was purchased from Addgene (cat# 23998), Cambridge, MA. cDNA encoding the GluN2C and GluN2D were purchased from GenScript, New Jersey, USA. Mutated GluN1, 2A and 2B cDNA constructs capable of assembling as GluN1/2A/2B triheteromeric (1/2AB) receptors[34] were obtained from Dr. Paoletti (Laboratoire de Neurobiologie, CNRS). These constructs have been previously tested for 1/2AB receptor activity of GluN1/2A receptor‐selective potentiators.[35] […] Plasmids were linearized with NotI (GluN1a and all five GluN1 mutants) or Avrll (GluN2B), or BstB1 (GluN2C and GluN2D) and transcribed in vitro with T7 (GluN1a, GluN1/2A, GluN2B, GluN2C & GluN2D), and SP6 (GluN1 mutants) RNA polymerase using the mMessage mMachine transcription kits (Invitrogen by Thermo Fisher Scientific).
Stage IV frog oocytes were obtained from Xenopus‐I, (Ann Arbor, MI, USA). NMDA receptor subunit cRNAs were suspended in nuclease free sterile water. GluN1A, GluN2B, GluN2C, GluN2D and GluN1/2A/2B cRNAs were mixed in a ratio of 1:1–3. 50 nL of the final cRNA mixture was microinjected (40–70 ng total) into the oocyte cytoplasm. Oocytes were incubated in ND‐96 solution at 18°C prior to electrophysiological recordings (2–5 days).
Electrophysiological responses were measured using a standard two‐microelectrode voltage‐clamp workstation (Warner Instruments model OC‐725C) designed to provide a fast clamp of large cells. The recording buffer contained 116 mM NaCl, 2 mM KCl, 0.3 mM BaCl2, and 5 mM HEPES, pH 7.4. Response magnitude was determined in Xenopus oocytes expressing different NMDA receptor subunits (GluN1/2A, 1/2B, 1/2C, 1/2D, and 1/2A/2B) by the steady plateau response elicited by bath application of different agonist concentrations. […] All data points were obtained from the steady state currents unless stated otherwise. Dose–response relationships were fit to an appropriate curve‐fitting equation using GraphPad Prism‐7. Non‐linear regression was used to calculate EC50, IC50, and fold change or percentage maximal response. Curves were fit using the following equations as performed in the previous studies, [37]: Y=100/1+10^LogEC50−XorY=Bottom+Top−Bottom/1+10^LogEC50−X . Statistical significance was determined at the overall alpha level 0.05, using appropriate statistical methods as described in all figure captions. Technical and biological replicates are explicitly mentioned in each figure legend, as n = X (Y). X represents technical repeats (number of traces) and Y represents biological repeats (number of oocytes or HEK293T cells studied). […]

GluN1/2D NMDA receptors = target: T1, GluN1/2D NMDA receptors (UniProt O15399+P35439); experiment: TEVC antagonist block of agonist-induced currents, 1/2D; type: cell-based; settings: 100 μM glutamate and glycine
T1 construct: host or cells: Xenopus oocytes (cRNA injection)
Method: (§1) Electrophysiological responses were measured using a standard two‐microelectrode voltage‐clamp workstation (Warner Instruments model OC‐725C) designed to provide a fast clamp of large cells. The recording buffer contained 116 mM NaCl, 2 mM KCl, 0.3 mM BaCl2, and 5 mM HEPES, pH 7.4. Response magnitude was determined in Xenopus oocytes expressing different NMDA receptor subunits (GluN1/2A, 1/2B, 1/2C, 1/2D, and 1/2A/2B) by the steady plateau response elicited by bath application of different agonist concentrations. […] All data points were obtained from the steady state currents unless stated otherwise. Dose–response relationships were fit to an appropriate curve‐fitting equation using GraphPad Prism‐7. Non‐linear regression was used to calculate EC50, IC50, and fold change or percentage maximal response. Curves were fit using the following equations as performed in the previous studies, [37]: Y=100/1+10^LogEC50−XorY=Bottom+Top−Bottom/1+10^LogEC50−X . Statistical significance was determined at the overall alpha level 0.05, using appropriate statistical methods as described in all figure captions. Technical and biological replicates are explicitly mentioned in each figure legend, as n = X (Y). X represents technical repeats (number of traces) and Y represents biological repeats (number of oocytes or HEK293T cells studied). […] For the data sets with nonparametric distribution, Wilcoxon signed rank test is a nonparametric test was used (Figure 1). Paired or unpaired t‐tests were for used only compare the datasets obtained with and without CNS4 dose response curves.
(§2) If CNS4 directly competes with GluN1 or GluN2 competitive antagonists or indirectly influences the activity, there should be a change in DCKA and/ or DL‐AP5 activity in blocking agonist‐induced currents.
FIGURE 4 Effect of CNS4 on competitive and uncompetitive NMDA receptor antagonists. […] A similar experiment was performed with 100 μM DL‐AP5. […] Paired student‐t test was performed to calculate the statistical significance. […]

GluN1/2A NMDA receptors = target: T2, GluN1/2A NMDA receptors (UniProt P35439+Q12879); experiment: TEVC antagonist block of agonist-induced currents, 1/2A; type: cell-based; settings: 100 μM glutamate and glycine, n = 7 (7)
T2 construct: expressed in transfected cells; host or cells: Xenopus oocytes (cRNA injection)
Method: as §1, §2
FIGURE 4 Effect of CNS4 on competitive and uncompetitive NMDA receptor antagonists. […] A similar experiment was performed with 100 μM DL‐AP5. […] Paired student‐t test was performed to calculate the statistical significance. […] Unpaired student‐t test was performed to calculate the statistical significance. *p < .05; NS, not significant.

[2] = 100 μM antagonist plus 100 μM CNS4

T2 sequence (Q12879 23-1464, other chains not shown): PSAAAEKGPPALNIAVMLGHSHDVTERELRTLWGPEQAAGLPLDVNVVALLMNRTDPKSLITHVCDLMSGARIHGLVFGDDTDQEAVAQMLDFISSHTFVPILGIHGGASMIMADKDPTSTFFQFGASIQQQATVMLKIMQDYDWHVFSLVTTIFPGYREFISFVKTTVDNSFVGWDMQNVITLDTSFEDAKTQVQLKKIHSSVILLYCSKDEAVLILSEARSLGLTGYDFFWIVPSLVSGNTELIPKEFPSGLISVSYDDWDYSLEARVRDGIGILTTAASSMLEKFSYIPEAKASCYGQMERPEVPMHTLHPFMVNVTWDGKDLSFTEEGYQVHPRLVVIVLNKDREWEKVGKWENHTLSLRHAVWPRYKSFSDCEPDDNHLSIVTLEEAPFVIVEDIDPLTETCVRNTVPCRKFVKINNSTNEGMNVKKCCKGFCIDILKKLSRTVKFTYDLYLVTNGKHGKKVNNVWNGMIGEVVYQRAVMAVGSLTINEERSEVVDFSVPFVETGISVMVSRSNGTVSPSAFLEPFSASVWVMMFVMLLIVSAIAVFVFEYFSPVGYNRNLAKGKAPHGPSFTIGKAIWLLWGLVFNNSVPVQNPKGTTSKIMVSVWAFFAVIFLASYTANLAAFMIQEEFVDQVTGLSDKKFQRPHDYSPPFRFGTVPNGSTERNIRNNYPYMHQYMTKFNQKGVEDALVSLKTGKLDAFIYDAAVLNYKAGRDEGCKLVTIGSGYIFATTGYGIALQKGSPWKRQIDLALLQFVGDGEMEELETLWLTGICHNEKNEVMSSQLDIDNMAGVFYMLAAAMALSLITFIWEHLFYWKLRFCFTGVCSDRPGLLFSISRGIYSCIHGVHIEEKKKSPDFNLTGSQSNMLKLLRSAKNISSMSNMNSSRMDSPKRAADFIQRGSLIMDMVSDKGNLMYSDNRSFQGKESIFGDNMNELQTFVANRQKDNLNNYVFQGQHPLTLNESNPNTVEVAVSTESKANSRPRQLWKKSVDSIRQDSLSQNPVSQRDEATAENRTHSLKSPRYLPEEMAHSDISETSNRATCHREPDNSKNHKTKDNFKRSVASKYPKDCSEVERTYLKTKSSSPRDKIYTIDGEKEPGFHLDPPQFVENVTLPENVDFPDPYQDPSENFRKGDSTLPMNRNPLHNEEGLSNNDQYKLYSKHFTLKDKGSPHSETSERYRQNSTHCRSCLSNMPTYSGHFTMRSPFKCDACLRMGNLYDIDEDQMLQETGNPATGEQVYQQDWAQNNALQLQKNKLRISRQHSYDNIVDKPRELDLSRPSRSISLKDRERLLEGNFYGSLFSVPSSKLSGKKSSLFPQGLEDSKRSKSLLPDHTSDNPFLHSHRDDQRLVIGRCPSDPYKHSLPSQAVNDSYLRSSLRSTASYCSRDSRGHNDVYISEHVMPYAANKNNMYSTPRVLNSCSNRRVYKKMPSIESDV
T1 sequence (O15399 28-1336, other chains not shown): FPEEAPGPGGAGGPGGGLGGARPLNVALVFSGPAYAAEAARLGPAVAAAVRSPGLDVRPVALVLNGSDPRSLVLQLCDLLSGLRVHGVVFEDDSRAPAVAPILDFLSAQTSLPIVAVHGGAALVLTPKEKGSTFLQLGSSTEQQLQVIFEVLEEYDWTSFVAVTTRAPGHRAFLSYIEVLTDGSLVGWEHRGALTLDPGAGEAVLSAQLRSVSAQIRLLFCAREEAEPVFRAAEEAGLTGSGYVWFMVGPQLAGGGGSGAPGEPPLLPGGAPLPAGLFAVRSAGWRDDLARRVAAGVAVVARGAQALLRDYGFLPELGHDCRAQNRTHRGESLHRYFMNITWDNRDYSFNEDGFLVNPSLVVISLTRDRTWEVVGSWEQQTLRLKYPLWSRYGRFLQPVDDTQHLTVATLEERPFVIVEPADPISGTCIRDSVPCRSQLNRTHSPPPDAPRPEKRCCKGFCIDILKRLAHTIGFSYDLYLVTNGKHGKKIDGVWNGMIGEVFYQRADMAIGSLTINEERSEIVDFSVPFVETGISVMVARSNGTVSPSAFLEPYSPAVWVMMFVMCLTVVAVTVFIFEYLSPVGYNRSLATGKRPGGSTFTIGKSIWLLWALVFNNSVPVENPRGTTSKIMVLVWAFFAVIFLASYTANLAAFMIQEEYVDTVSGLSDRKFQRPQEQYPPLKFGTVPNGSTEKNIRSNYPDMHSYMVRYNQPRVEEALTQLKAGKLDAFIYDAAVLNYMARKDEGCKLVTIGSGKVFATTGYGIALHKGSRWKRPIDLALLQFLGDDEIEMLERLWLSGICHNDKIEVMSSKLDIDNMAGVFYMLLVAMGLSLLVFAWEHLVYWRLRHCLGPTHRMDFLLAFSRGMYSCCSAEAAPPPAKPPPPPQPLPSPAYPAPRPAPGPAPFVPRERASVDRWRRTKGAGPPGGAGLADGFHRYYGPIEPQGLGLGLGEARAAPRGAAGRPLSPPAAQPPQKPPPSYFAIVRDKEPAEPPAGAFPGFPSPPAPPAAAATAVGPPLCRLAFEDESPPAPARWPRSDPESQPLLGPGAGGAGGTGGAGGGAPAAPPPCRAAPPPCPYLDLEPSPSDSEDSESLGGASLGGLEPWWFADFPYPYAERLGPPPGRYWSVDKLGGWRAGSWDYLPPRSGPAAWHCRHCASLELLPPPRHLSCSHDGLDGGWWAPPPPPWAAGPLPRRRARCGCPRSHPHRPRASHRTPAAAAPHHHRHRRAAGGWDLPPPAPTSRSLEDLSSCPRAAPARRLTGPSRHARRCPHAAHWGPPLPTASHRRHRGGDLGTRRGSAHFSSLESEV

| Compound | EC50 (1/2A NMDA receptor) [nM] | EC50 (1/2D NMDA receptor) [nM] | Glycine efficacy: relative fold change in current at highest glycine concentration [1] [fold] | Block of agonist-induced currents (GluN1/2D NMDA receptors; [2]) [%] | Block of agonist-induced currents (GluN1/2A NMDA receptors; 100 μM antagonist alone) | Block of agonist-induced currents (GluN1/2A NMDA receptors; [2]) [%] | Block of agonist-induced currents (GluN1/2D NMDA receptors; 100 μM antagonist alone) |
| --- | --- | --- | --- | --- | --- | --- | --- |
| N[C@@H](CCC(=O)O)C(=O)O [glutamate, L‐glutamate] | ~3000 | ~500 |  |  |  |  |  |
| NCC(=O)O [glycine, reference compound] |  |  | 2.37 ± 0.23 |  |  |  |  |
| O=C(O)c1cc(=O)c2c(Cl)cc(Cl)cc2[nH]1 [DCKA] |  |  |  | 62.09 ± 2.27 | 97.85 ± 0.66% | 98.98 ± 0.21 |  |
| NC(CCCP(=O)(O)O)C(=O)O (stereo not drawn) [DL‐AP5] |  |  |  | 5.96 ± 10.59 | 39.53 ± 1.22% and ~ 39% | 38.10 ± 1.28 | 18.28 ± 10.47% and ~ 18% |
